From US20040087561A1, “Treatment of sexual dysfunction” (priority 2000, published 2004)
Read-outs that look alike come from different tables or passages of the source.

Columns and labels:
[1] = tested on: ovariectomised female Sprague Dawley rats; test: Female rat sexual proceptivity (time investigating male vs female stimulus); assay type: in vivo; settings: for MED, percentage of time spent investigating the male stimulus (proceptivity) / percentage of time spent investigating the male stimulus (proceptivity): 1 h before test
Protocol: (§1) Ovariectomised adult female Sprague Dawley rats (180-200 g, from Charles River) were housed in groups of 6 in a reversed lighting system of 12 h light:dark (lights off 7.00-19.00 h). Two weeks after ovariectomy they were used for sexual activity tests. The experiments started at least 5 h into the dark period.
Tests were carried out in a circular arena of 90 cm diameter, surrounded by a 30 cm high wall. Two small cages with wire-mesh front (15×15 cm) are fixed into the wall such that the front of the cage is <> with the wall and the 2 cages are opposite each other. They contained two stimuli animals: an intact sexually experienced male and a receptive female (ovariectomised, primed with 5 μg oestradiol benzoate dissolved in corn oil and injected subcutaneously 48 hours before the test and with 0.5 mg of progesterone four hours before the test). Sexually naive test and control animals were used. Forty eight hours before the tests, both the test and control animals were primed with 5 μg oestradiol benzoate. For animals used as positive controls, progesterone (0.5 mg/0.1 ml) was dissolved in corn oil and administered subcutaneously (s.c.), 4 h before the test. Test and control animals were introduced one at a time for 10 minute periods into the arena. During the 10 min test, the time that the test or positive control animal spent investigating each stimulus animal was noted. The arena was thoroughly cleaned between animals. The position of the male/female stimuli boxes was randomised between animals, in order to avoid place preference. The difference in the percentage of time spent investigating the male minus the female stimuli was calculated, out of the total time spent investigating stimuli animals.
Compound (1) was dissolved in 100% β-cyclodextrin and then diluted with saline to a final solution of 50% 2-hydroxypropyl-β-cyclodextrin. It was administered intraperitoneally (i.p.) at doses of 3 and 10 mg/kg, in a dosing volume of 1 ml/kg, 1 h before tests. Progesterone (0.5 mg/0.1 ml) was dissolved in corn oil and administered subcutaneously (s.c.), 4 h before test, as a positive control.
Ovariectomised adult female Sprague Dawley rats (180-200 g) were housed in groups of 5 in a reversed lighting system of 12 h light:dark (lights off 5.00-17.00 h). They were used for the experiments at least two weeks after ovariectomy. Forty eight hours before tests, the animals were primed with oestradiol benzoate (5 μg/0.1 ml in corn oil, s.c.). On day 1, progesterone (0.5 mg/0.1 ml, in corn oil, s.c.) was administered to one of the groups 4 h before tests, as a positive control. Compound (1) (15 mg/kg, i.p.) was administered in 50% 2-hydroxypropyl-β-cyclodextrin, 1 h before tests. The test lasted 10 minutes and was carried out as described before. The difference in the percentage of time spent investigating the male minus the female stimuli was calculated, out of the total time spent investigating stimuli animals. Animals were submitted to a test on day 1 and on day 15. From day 2 to 14 the Compound (1) group received a daily injection of the compound (15 mg/kg, i.p.), while both the vehicle and the progesterone groups received an injection of vehicle. On day 15 the test took place again, as described for day 1.
Ovariectomised female rats (Sprague Dawley, obtained from Charles River, UK) were stereotaxically implanted (coordinates 0.89 mm behind Bregma, 1.3 mm lateral and 2.5 mm vertical) with stainless steel cannulae (6 mm long, O.D. 0.75 mm), held in place with dental cement. Animals were housed in groups of three and returned to a reversed lighting system of 12 h light:dark (lights off 5.00-17.00 h). Correct placement of the cannulae was assessed post-mortem. Rats were used for tests two weeks after ovariectomy (one week after cannulation). The experiments started at least 5 h into the dark period. […]

[2] = tested on: ovariectomised female Sprague Dawley rats; test: Female rat sexual receptivity (lordosis quotient); assay type: in vivo; settings: for lordosis quotient (LQ) compared to LQ before administration: quinelorane 6.25 μg/kg s.c., 90 min
Protocol: as §1
Compound (1) was dissolved in 100% β-cyclodextrin and then diluted with saline to a final solution of 50% 2-hydroxypropyl-β-cyclodextrin. It was administered intraperitoneally (i.p.) at a dose of 10 mg/kg, in a dosing volume of 1 ml/kg. Quinelorane (6.25 μg/kg) was dissolved in water and administered s.c. as positive control. Forty eight hours before testing, ovariectomised female rats (as described above), were primed with 5 μg oestradiol benzoate dissolved in corn oil and injected subcutaneously. […] The females were placed with a series of vigorous male rats and subjected to 10 mounts.
The lordotic response of the animal was recorded and expressed as a percentage of the mounts (i.e. lordosis quotient, LQ), as previously described. Animals showing LQ<20 were considered non-receptive and were included in the study. Each rat was tested prior to administration of the compound and then tested similarly post-injection. The pre-treatment times were 1 h for Compound (1) and vehicle (50% β-cyclodextrin, i.p.) or 90 min for quinelorane.
The above compound was dissolved in PEG200 vehicle and administered orally. Quinelorane dihydrochloride (LY 163,502, 6.25 μg/kg) was dissolved in water and administered subcutaneously (s.c.), as a positive control. Both compounds were administered in a 1 ml/kg volume.
Forty eight hours before tests, the animals were primed with 5 μg oestradiol benzoate (Sigma Chemical. Co. Ltd., UK) dissolved in corn oil and injected subcutaneously. The females were placed with a series of vigorous male rats and subjected to 10 mounts. The lordotic response of the animal was recorded and expressed as a percentage of the mounts (i.e. lordosis quotient, LQ). […] Animals showing higher LQ were not included in the study. Each rat was tested prior to administration of the compound and then tested similarly at 1 h and 90 min post-injection of the above compound or quinelorane respectively.

[3] = target: T1, human NMB receptor (BB1) (Homo sapiens, UniProt P28336); test: BB1 binding assay ([125I][Tyr4]bombesin, CHO-K1 cell membranes)
T1 construct: expressed in transfected cells; host or cells: CHO-K1
Protocol: In the following experiments, measurement of BB1 and BB2 binding was as follows. CHO-K1 cells stably expressing cloned human NMB (for (BB1 assay) and GRP receptors (for BB2 assay) were routinely grown in Ham's F12 culture medium supplemented with 10% foetal calf serum and 2 mM glutamine. For binding experiments, cells were harvested by trypsinization, and stored frozen at −70° C. in Ham's F12 culture medium containing 5% DMSO until required. On the day of use, cells were thawed rapidly, diluted with an excess of culture medium, and centrifuged for 5 minutes at 2000 g. Cells were resuspended in 50 mM Tris-HCl assay buffer (pH 7.4 at 21° C., containing 0.02% BSA, 40 μg/mL bacitracin, 2 μg/mL chymostatin, 4 μg/mL leupeptin, and 2 μM phosphoramidon), counted, and polytronned (setting 5, 10 sec) before centrifuging for 10 minutes at 28,000 g. The final pellet was resuspended in assay buffer to a final cell concentration of 1.5×10^5/mL. For binding assays, 200 μL aliquots of membranes were incubated with [^125I][Tyr^4]bombesin (<0.1 nM) in the presence and absence of test compounds (final assay volume 250 μL) for 60 minutes and 90 minutes for NMB and GRP receptors, respectively. Nonspecific binding was defined by 1 μM bombesin. Assays were terminated by rapid filtration under vacuum onto Whatman GF/C filters presoaked in 0.2% PEI for >2 hours, and washed 50 mM Tris-HC (pH 6.9 at 21° C.; 6×1 mL). Radioactivity bound was determined using a gamma counter.
All competition data was analysed using nonlinear regression utilizing iterative curve-plotting procedures in Prism® (GraphPad Software Inc., San Diego, USA). IC50 values were corrected to Ki values using the Cheng-Prusoff equation (Cheng Y., PrusoffW. H., Biochem. Pharmacol. 22: 3099-3108, 1973).

[4] = tested on: Sprague Dawley male rats; test: Sexual behaviour of sexually dysfunctional (fluoxetine-treated) male rats; assay type: in vivo, rat; settings: fluoxetine 20 mg/kg i.p. 3 days (vs vehicle+vehicle); day 4 Compound (1) 15 mg/kg or yohimbine 2 mg/kg i.p. 1 h before test (vs fluoxetine+vehicle)
Protocol: Sprague Dawley male rats (Charles River, UK) were kept, 4 rats per cage, in a reversed lighting regime (12:12 hours, lights off at 5.00 h), with free access to food and water. The rats were pre-selected by being presented with a receptive female at […], i.e. every third day (haying 2 clear days between presentations) until completing 6-7 trials of baseline determination. The animals showing consistently vigorous behaviour (ejaculatory latencies <300 s) were chosen for further experiments. Animals were treated for 3 consecutive days with either vehicle (water) or fluoxetine (20 mg/kg, i.p., in a 2 ml/kg dosing volume). On the fourth day, the animals treated with water received vehicle (veh+veh) and the animals treated with fluoxetine received one of the three following treatments: Compound (1) (15 mg/kg, dissolved in 50% 2-hydroxypropyl-β-cyclodextrin in saline), vehicle (cyclodextrine), or yohimbine (2 mg/kg dissolved in water). All treatments were administered i.p. in a 1 ml/kg volume, 1 h before tests.
For all the sexual behaviour tests, the males were placed in an observation arena (50-60 cm diameter), starting 5 hours into the dark cycle and observed under red illumination. Three to 4 minutes after placing the male in the arena, a receptive female (ovariectomised, bearing a 7 mm Silastic implant of oestradiol benzoate) was introduced to the arena and the following parameters noted: Mount Latency: time (in seconds) taken between introduction of female and first mount. A maximum time of 15 minutes (900 seconds) was allowed, and the test terminated if no mounts were recorded within that time (FIG. 16), Ejaculation Latency: time (in seconds) taken from first intromission to ejaculation. A maximum time of 30 minutes (1800 seconds) was given, and the test terminated if ejaculation was not achieved in that time (FIG. 17), Percentage of males achieving ejaculation within 30 minutes was calculated (FIG. 18).
A one-way ANOVA followed by Dunnett's t test was used to compare the fluoxetine+vehicle group and other groups for mount and ejaculatory latencies. Percentage of animals ejaculating was analysed using a Chi-square test followed by Fisher's test. (*: P<0.05, **: P<0.01, ***: P<0.001; n=15-19).

[5] = oral, 30-100 mg/kg in PEG 200 vehicle
[6] = p.o., 3-30 mg/kg in 0.5% methyl cellulose
[7] = Example 31, Compound (2) 10-100 mg/kg oral in PEG200, 1 h

T1 sequence (P28336 whole entry): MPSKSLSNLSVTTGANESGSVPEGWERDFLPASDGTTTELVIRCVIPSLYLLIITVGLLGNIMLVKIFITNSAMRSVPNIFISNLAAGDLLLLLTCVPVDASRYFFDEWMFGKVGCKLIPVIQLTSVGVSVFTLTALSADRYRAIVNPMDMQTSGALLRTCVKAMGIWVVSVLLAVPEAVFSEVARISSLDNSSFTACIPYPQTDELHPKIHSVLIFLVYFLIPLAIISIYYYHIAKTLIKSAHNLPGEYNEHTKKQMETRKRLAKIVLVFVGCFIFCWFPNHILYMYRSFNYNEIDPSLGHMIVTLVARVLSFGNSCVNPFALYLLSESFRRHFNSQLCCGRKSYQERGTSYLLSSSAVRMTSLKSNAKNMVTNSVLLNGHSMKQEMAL

COc1ccc(C2(CNC(=O)[C@](C)(Cc3c[nH]c4ccccc34)Nc3nc(-c4ccc([N+](=O)[O-])cc4)co3)CCCCC2)nc1 [Example 9, (S)-3-(1H-Indol-3-yl)-N-[1-(5-methoxy-pridin-2-yl)-cyclohexylmethyl]-2-methyl-2-[4-(4-nitro-phenyl)-oxazol-2-ylamino]-propionamide]
increase in potency compared to the oral results in the PEG200 vehicle ([1]; MED in 0.5% methyl cellulose vs MED in PEG200, p.o.): 10 fold | MED, percentage of time spent investigating the male stimulus (proceptivity) [1, 5]: 100 mg/kg | percentage of time spent investigating the male stimulus (proceptivity) [1, 5]: increased the percentage of time spent investigating the male stimulus | MED, percentage of time spent investigating the male stimulus (proceptivity) [1, 6]: 10 mg/kg | percentage of time spent investigating the male stimulus (proceptivity) [1, 6]: increased the percentage of time spent investigating the male stimulus | lordosis quotient (LQ) compared to LQ before administration [2, 7]: dose-dependently (10-100 mg/kg) increased the LQ | MED, increase of lordosis quotient (LQ) ([2]; Example 31, single oral administration 10-100 mg/kg in PEG200, 1 h after administration): 100 mg/kg

CCCN1CCC[C@@H]2Cc3nc(N)ncc3C[C@H]21 [quinelorane, reference compound]
lordosis quotient (LQ) compared to LQ before administration ([2]; Example 2, Compound (1) 10 mg/kg i.p., 1 h): significantly (P<0.01) increased the LQ | lordosis quotient (LQ) compared to LQ before administration [2, 7]: significantly (P<0.01) increased the LQ

C[C@@](Cc1c[nH]c2ccccc12)(NS(=O)(=O)c1cc(Cl)sc1Cl)C(=O)NCC1(c2ccccn2)CCCCC1 [Example 157]
IC50 [3]: 214 nM

COC(=O)[C@@H]1[C@H]2C[C@H]3c4[nH]c5ccccc5c4CCN3C[C@@H]2CC[C@@H]1O [Yohimbine, yohimbine]
Ejaculation latency [4]: did not reach significance | Mount latency [4]: did not reach significance | percentage of animals ejaculating (within 30 minutes) [4]: did not reach significance

Cc1ccccc1CC(=O)N[C@@](C)(Cc1c[nH]c2ccccc12)C(=O)NCC1(c2ccccn2)CCCCC1 [Example 51, (S)-3-(1H-Indol-3-yl)-2-methyl-N-(1-pyridin-2-yl-cyclohexylmethyl)-2-(2-o-tolyl-ethanoylamino)-propionamide]
IC50 ([3]; Table 3): 944 nM

C-Dimethylamino-N—{(S)-2-(1H-indol-3-yl)-1-methyl-1-[(1-pyridin-2-yl-cyclohexyl-methyl)-carbamoyl]-ethyl}-benzamide [Example 48]
IC50 ([3]; Table 3): 716 nM
